Laboratory results published in US11571418B2, “Platinum compounds that inhibit constitutive STAT3 signaling and induce cell cycle arrest and apoptosis of malignant cells” (H. LEE MOFFITT CANCER CENTER AND RESEARCH INSTITUTE, INC., priority 2011, dated 2023).

Assays:
[1] = test system: hSIE oligonucleotide probe; assay: Pre-treatment of hSIE oligonucleotide with compound, then Stat3 binding by EMSA; conditions: oligonucleotide treated 30 min, then radiolabeled
Procedure: To investigate the possibility that PLATINUM-401 might alter the integrity of the hSIE oligonucleotide probe that is used in the DNA-binding activity studies and thereby inhibit Stat3 binding, the oligonucleotide was first treated with PLATINUM-401 for 30 min. Pre-treated oligonucleotide was then radiolabeled and tested for its ability to bind to activated Stat3 in vitro. […] While PLATINUM-401 was in direct contact with the oligonucleotide probe during the pre-treatment stage and prior to radiolabeling of the probe, it is unlikely to have been retained with the oligonucleotide probe following purification of the probe and therefore would not have come into contact with Stat3 protein at the time of the in vitro DNA-binding assay.

A549 = assay: TUNEL analysis of apoptosis; assay type: cell-based, human; conditions: 48 h
Excerpt: (§1) FIGS. 7A-7C. TUNEL analysis of PLATINUM-401-mediated apoptosis. (FIG. 7A) Normal NIH3T3 fibroblasts and their v-Src-transformed counterparts (NIH3T3/v-Src), human breast carcinoma cell lines (MDA-MB-453, MDA-MB-435, MDA-MB-468, and MDA-MB-231), human non-small cell lung cancer cell line (A549), human prostate cancer cell line (DU145), multiple myeloma 5TGM1 (mouse) and U266 (human) cell lines, mouse melanoma cell line (B16) and human pancreatic cancer cell line (Panc1) were all treated with or without PLATINUM-401 for 48 h and analyzed by TUNEL for DNA damage. For each cell line, the activated Stat3 status is indicated as (−), no constitutively-active Stat3 and (+), constitutively-active Stat3 (see FIG. 5A). Data are representative of 3 independent determinations; (FIG. 7B) Human breast cancer cell lines (MDA-MB-453, MDA-MB-468 and MDA-MB-435) were transfected with or without Stat3β or Stat3 antisense (Stat3AS), or were treated with or without Stat3 peptidomimetic inhibitor, ISS 610 (1 mM) or PLATINUM-401 (5 μM)). Forty-eight hours afterwards, cells were harvested and processed for TUNEL analysis; (FIG. 7C) The viral Src-transformed NIH3T3/v-Src fibroblasts were transfected with or without wild-type Stat3 (pRc/CMV Stat3 Flag) and treated with or without 5 μM PLATINUM-401 for 36 h. Cells were subsequently harvested for nuclear extracts preparation and Stat3 DNA-binding assay in vitro with EMSA analysis (left panel), or were processed for TUNEL analysis (right panel).
(§2) Cell proliferation and TUNEL assays—Proliferating cells were first treated with or without PLATINUM-401 for up to 48 h. A portion of cells were harvested for BrdU incorporation following the manufacturer's (BD Biosciences Pharmingen, San Diego, Calif.) instructions and analyzed by flow cytometry. Harvested cells were also analyzed for apoptosis via detection of TdT-mediated dUTP nick-end labeling (TUNEL) assay using Apoptosis Detection Systems Fluorescein according to the manufacturer's (Roche, Indianapolis, Ind.) instructions. Oligonucleotides and plasmids Transfections. The Stat3 antisense (5′-[…]-3′) (SEQ ID NO:3) or control mismatch oligonucleotides (5′-[…]-3′) (SEQ ID NO:4) were synthesized using phosphorothioate chemistry and were synthesized with 2′-Omethoxyethyl modification of the five terminal nucleotides (underlined; (Mora et al., 2002; Karras et al., 2000)) to increase stability. Transfections of Stat3AS and plasmids were carried out with Lipofectamine 2000 (LF) according to the manufacturer's instructions (Invitrogen, Carlsbad, Calif.). Briefly, cells were seeded at 1-2×10^6 cells/10-cm tissue-culture plates 18 h before transfection. Immediately before transfection, cells were washed once with PBS. Cells were transfected with luciferase reporters (4 μg) in the presence or absence of v-Src (4 μg), or were transfected with Stat3β (4 μg) or pRC/CMV Stat3 Flag (4 μg). Stat3AS transfections were carried out LF alone, or with LF/Stat3 antisense oligonucleotides, or LF/Stat3 mismatch oligonucleotides (final concentration of the oligonucleotides was 250 nM). After 2-3 h, the transfection medium was aspirated and cells washed with PBS before fresh medium added containing 10% FBS was added.
(§3) Cells were analyzed for DNA-strand breaks by TUNEL staining. […] The incidence of apoptosis correlated with the prevalence of constitutively-active Stat3 in malignant cells (FIG. 7, lower panel). Moreover, the incidence of apoptosis by PLATINUM-401 in breast cancer cell lines (MDA-MB-468 and MDA-MB-435) harboring constitutively-active Stat3 compares favorably to that induced by other previously investigated Stat3 inhibitory approaches, such as Stat3β (Garcia et al., 2001), Stat3 antisense (Stat3AS) (Mora et al., 2002), peptidomimetic inhibitor of Stat3 (ISS 610) (FIG. 7B) (Turkson et al., 2004c), and contrasts with the absence of apoptosis in breast cancer cell line, MDA-MB-453 that lacks constitutively-active Stat3. […]

MDA-MD-231 = assay: TUNEL analysis of apoptosis; assay type: cell-based, human; conditions: 48 h
Excerpt: as §1, §2, §3

MDA-MB-453 = assay: TUNEL analysis of apoptosis; assay type: cell-based, human; conditions: 48 h, no aberrant Stat3 activity
Excerpt: as §1, §2, §3

U266 = assay: TUNEL analysis of apoptosis; assay type: cell-based, human; conditions: 48 h
Excerpt: as §1, §2, §3

MDA-MB-468 = assay: TUNEL analysis of apoptosis; assay type: cell-based, human; conditions: 48 h
Excerpt: as §1, §2, §3

DU145 = assay: TUNEL analysis of apoptosis; assay type: cell-based, human; conditions: 48 h
Excerpt: as §1, §2, §3

MDA-MB-435 = assay: TUNEL analysis of apoptosis; assay type: cell-based, human; conditions: 48 h
Excerpt: as §1, §2, §3

Panc1 = assay: TUNEL analysis of apoptosis; assay type: cell-based, human; conditions: 48 h
Excerpt: as §1, §2, §3

With CC(O)CN1CCN(CC(C)O)CC1 (stereo not drawn) [PLATINUM-401] the “effect of pre-treatment of hSIE oligonucleotide on its ability to bind activated Stat3” value [1] was “no observable effect”, the TUNEL staining (A549) was “Significant TUNEL staining” and the TUNEL staining (MDA-MD-231) was “Significant TUNEL staining”. For the same compound, the TUNEL staining (MDA-MB-453) was “no TUNEL staining”, the TUNEL staining (U266) was “Significant TUNEL staining” and the TUNEL staining (MDA-MB-468) was “Significant TUNEL staining”. For the same compound, the TUNEL staining (DU145) was “Significant TUNEL staining”, the TUNEL staining (MDA-MB-435) was “Significant TUNEL staining” and the TUNEL staining (Panc1) was “Significant TUNEL staining”.
